According to patent publication US8124793B2, “Derivatives of ethylene methanedisulfonate as cancer chemotherapeutic agents” (priority 2007, dated 2012):

Experiments:
Format in all cases: cell-based
NCI-H522 = assay: NCI screen, growth of human tumor cells: Non-Small Cell Lung NCI-H522; details: NCI-H522, 10^−4 molar
In short: (§1)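 NCI screening: compound applied to tumor cell lines at a given molar concentration, growth measured as percent. Minimum 60 data points/compound; cancer type noted.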

RPMI-8226 = assay: NCI screen, growth of human tumor cells: Leukemia RPMI-8226; details: RPMI-8226 (Leukemia), 10^−4 molar
In short: as §1

OVCAR-3 = assay: NCI screen, growth of human tumor cells: Ovarian Cancer OVCAR-3; details: OVCAR-3 (Ovarian Cancer), 10^−4 molar
In short: as §1

M14 = assay: NCI screen, growth of human tumor cells: Melanoma M14; details: M14, 10^−4 molar
In short: as §1

SF-268 = assay: NCI screen, growth of human tumor cells: CNS Cancer SF-268; details: SF-268 (CNS Cancer), 10^−4 molar
In short: as §1

U-251 = assay: NCI screen, growth of human tumor cells: CNS Cancer U-251; details: U-251 (CNS Cancer), 10^−4 molar
In short: as §1

CCRF-CEM = assay: NCI screen, growth of human tumor cells: Leukemia CCRF-CEM; details: CCRF-CEM (Leukemia), 10^−4 molar
In short: as §1

KM12 = assay: NCI screen, growth of human tumor cells: Colon Cancer KM12; details: KM12 (Colon Cancer), 10^−4 molar
In short: as §1

NCI-H226 = assay: NCI screen, growth of human tumor cells: Non-Small Cell Lung NCI-H226; details: NCI-H226 (Non-Small Cell Lung), 10^−4 molar
In short: as §1

SK-OV-3 = assay: NCI screen, growth of human tumor cells: Ovarian Cancer SK-OV-3; details: SK-OV-3 (Ovarian Cancer), 10^−4 molar
Method: (§2) In the NCI screening process, each compound was tested and described by a minimum of 60 data points. The test data include, but are not limited to the type of cancer, the molar concentration used in the screen, and the percent growth of the cancer. In some cases, NMR and elemental analysis were used for structural assignment.

CAKI-1 = assay: NCI screen, growth of human tumor cells: Renal Cancer CAKI-1; details: CAKI-1 (Renal Cancer), 10^−4 molar
In short: as §1

HCT-15 = assay: NCI screen, growth of human tumor cells: Colon Cancer HCT-15; details: HCT-15, 10^−4 molar
In short: as §1

HCT-116 = assay: NCI screen, growth of human tumor cells: Colon Cancer HCT-116; details: HCT-116 (Colon Cancer), 10^−4 molar
In short: as §1

human cancer cells = assay: NCI screen summary over the cancers tested (negative growth of human cancer cells); details: cancers with negative growth / cancers tested
Method: as §2
The derivatives in the tables are grouped using the same category as in the tables 1-6.

AS49/ATCC = assay: NCI screen, growth of human tumor cells: Non-Small Cell Lung AS49/ATCC; details: AS49/ATCC (Non-Small Cell Lung), 10^−4 molar
Method: as §2

RXF-393 = assay: NCI screen, growth of human tumor cells: Renal Cancer RXF-393; details: RXF-393 (Renal Cancer), 10^−4 molar
In short: as §1

SK-MEL-2 = assay: NCI screen, growth of human tumor cells: Melanoma SK-MEL-2; details: SK-MEL-2 (Melanoma), 10^−4 molar
In short: as §1

MALME-3M = assay: NCI screen, growth of human tumor cells: Melanoma MALME-3M; details: MALME-3M, 10^−4 molar
In short: as §1

HOP-62 = assay: NCI screen, growth of human tumor cells: Non-Small Cell Lung HOP-62; details: HOP-62, 10^−4 molar
In short: as §1

OVCAR-5 = assay: NCI screen, growth of human tumor cells: Ovarian Cancer OVCAR-5; details: OVCAR-5, 10^−4 molar
In short: as §1

K562 = assay: NCI screen, growth of human tumor cells: Leukemia K562; details: K562 (Leukemia), 10^−4 molar
In short: as §1

SF-295 = assay: NCI screen, growth of human tumor cells: CNS Cancer SF-295
In short: as §1

NCI-H23 = assay: NCI screen, growth of human tumor cells: Non-Small Cell Lung NCI-H23; details: NCI-H23, 10^−4 molar
In short: as §1

SK-MEL-28 = assay: NCI screen, growth of human tumor cells: Melanoma SK-MEL-28; details: SK-MEL-28, 10^−4 molar
In short: as §1

HT29 = assay: NCI screen, growth of human tumor cells: Colon Cancer HT29; details: HT29 (Colon Cancer), 10^−4 molar
Method: as §2

HCC-2998 = assay: NCI screen, growth of human tumor cells: HCC-2998 (listed under Non-Small Cell Lung); details: HCC-2998, 10^−4 molar
Method: as §2

MOLT-4 = assay: NCI screen, growth of human tumor cells: Leukemia MOLT-4; details: MOLT-4 (Leukemia), 10^−4 molar
Method: as §2

MCF 7 = assay: NCI screen, growth of human tumor cells: Breast Cancer MCF 7; details: MCF 7 (Breast Cancer), 10^−4 molar
In short: as §1

SR = assay: NCI screen, growth of human tumor cells: Leukemia SR; details: SR
In short: as §1

SF-539 = assay: NCI screen, growth of human tumor cells: CNS Cancer SF-539
In short: as §1

UO-31 = assay: NCI screen, growth of human tumor cells: Renal Cancer UO-31; details: UO-31 (Renal Cancer), 10^−4 molar
In short: as §1

MDA-MB-435 = assay: NCI screen, growth of human tumor cells: Breast Cancer MDA-MB-435; details: MDA-MB-435, 10^−4 molar
In short: as §1

NCI-H322M = assay: NCI screen, growth of human tumor cells: Non-Small Cell Lung NCI-H322M; details: NCI-H322M, 10^−4 molar
Method: as §2

SK-MEL-5 = assay: NCI screen, growth of human tumor cells: Melanoma SK-MEL-5; details: SK-MEL-5, 10^−4 molar
In short: as §1

BT-549 = assay: NCI screen, growth of human tumor cells: Breast Cancer BT-549; details: BT-549, 10^−4 molar
In short: as §1

COLO205 = assay: NCI screen, growth of human tumor cells: Colon Cancer COLO205; details: COLO205, 10^−4 molar
In short: as §1

DU-145 = assay: NCI screen, growth of human tumor cells: Prostate Cancer DU-145; details: DV-145, 10^−4 molar
In short: as §1

EKVX = assay: NCI screen, growth of human tumor cells: Non-Small Cell Lung EKVX; details: EKVX (Non-Small Cell Lung), 10^−4 molar
In short: as §1

IGROVI = assay: NCI screen, growth of human tumor cells: Ovarian Cancer IGROVI; details: IGROVI (Ovarian Cancer), 10^−4 molar
In short: as §1

SN12C = assay: NCI screen, growth of human tumor cells: Renal Cancer SN12C; details: SN12C (Renal Cancer), 10^−4 molar
In short: as §1

NCI-H460 = assay: NCI screen, growth of human tumor cells: Non-Small Cell Lung NCI-H460; details: NCI-H460 (Non-Small Cell Lung), 10^−4 molar
In short: as §1

UACC-257 = assay: NCI screen, growth of human tumor cells: Melanoma UACC-257; details: UACC-257, 10^−4 molar
In short: as §1

MCF7/ADR-RES = assay: NCI screen, growth of human tumor cells: Breast Cancer MCF7/ADR-RES; details: MCF7/ADR-RES (Breast Cancer), 10^−4 molar
In short: as §1

HL-60 (TB) = assay: NCI screen, growth of human tumor cells: Leukemia HL-60 (TB); details: HL-60 (TB) (Leukemia), 10^−4 molar
Method: as §2

ACHN = assay: NCI screen, growth of human tumor cells: Renal Cancer ACHN; details: ACHN
In short: as §1

786-0 = assay: NCI screen, growth of human tumor cells: Renal Cancer 786-0
Method: as §2

OVCAR-4 = assay: NCI screen, growth of human tumor cells: Ovarian Cancer OVCAR-4; details: OVCAR-4 (Ovarian Cancer), 10^−4 molar
In short: as §1

UACC-62 = assay: NCI screen, growth of human tumor cells: Melanoma UACC-62
In short: as §1

Compound: CC1=C(CC2(S(=O)(=O)C(F)(F)F)S(=O)(=O)OCCOS2(=O)=O)C(=O)c2ccccc2C1=O [NSC 720682, ethylene trifluorosulfonyl-(3-methyl-1,4-naphtho-2-quinolyl)-1,1-ethanedisulfonate]
- % Growth (NCI-H522): −72%
- percent of growth of human tumor cells (RPMI-8226): −4%
- percent of growth of human tumor cells (OVCAR-3): −42%
- % Growth (M14): −90%
- percent of growth of human tumor cells (SF-268): 1%
- percent of growth of human tumor cells (U-251): −36%
- percent of growth of human tumor cells (CCRF-CEM): −5%
- percent of growth of human tumor cells (KM12): 20%
- percent of growth of human tumor cells (NCI-H226): −45%
- percent of growth of human tumor cells (SK-OV-3): 20%
- percent of growth of human tumor cells (CAKI-1): 16%
- % Growth (HCT-15): −72%
- percent of growth of human tumor cells (HCT-116): 19%
- Percentage of cancers showing negative growth cancers tested (human cancer cells; 10^−4 M conc.): 81%
- Percentage of cancers showing negative growth cancers tested (human cancer cells; 10^−5 M conc.): 17%
- percent of growth of human tumor cells (AS49/ATCC): −37%
- percent of growth of human tumor cells (RXF-393): 24%
- percent of growth of human tumor cells (SK-MEL-2): −58%
- % Growth (MALME-3M): −89%
- % Growth (HOP-62): −96%
- % Growth (OVCAR-5): −87%
- percent of growth of human tumor cells (K562): −11%
- % Growth (SF-295; SF-295, 10^−4 molar): −78%
- % Growth (SF-295; SF-295, 10^−5 molar): 53%
- % Growth (NCI-H23): −68%
- % Growth (SK-MEL-28): −85%
- percent of growth of human tumor cells (HT29): −43%
- % Growth (HCC-2998): −88%
- percent of growth of human tumor cells (MOLT-4): −11%
- percent of growth of human tumor cells (MCF 7): 1%
- % Growth (SR; 10^−4 molar): −14%
- % Growth (SR; 10^−5 molar): 30%
- % Growth (SF-539; SF-539, 10^−4 molar): −69%
- % Growth (SF-539; SF-539, 10^−5 molar): 57%
- percent of growth of human tumor cells (UO-31): 29%
- % Growth (MDA-MB-435): −86%
- % Growth (NCI-H322M): −97%
- % Growth (SK-MEL-5): −91%
- % Growth (BT-549): −78%
- % Growth (COLO205): −88%
- % Growth (DU-145): −99%
- percent of growth of human tumor cells (EKVX): −36%
- percent of growth of human tumor cells (IGROVI): −18%
- percent of growth of human tumor cells (SN12C): −70%
- percent of growth of human tumor cells (NCI-H460): −59%
- % Growth (UACC-257): −64%
- percent of growth of human tumor cells (MCF7/ADR-RES): 1%
- percent of growth of human tumor cells (HL-60 (TB)): −22%
- % Growth (ACHN; 10^−4 molar): −21%
- % Growth (ACHN; 10^−5 molar): 55%
- % Growth (786-0; 786-0, 10^−4 molar): −20%
- % Growth (786-0; 786-0, 10^−5 molar): 49%
- percent of growth of human tumor cells (OVCAR-4): −23%
- % Growth (UACC-62; UACC-62, 10^−4 molar): −73%
- % Growth (UACC-62; UACC-62, 10^−5 molar): 55%
